Read-outs that look alike come from different tables or passages of the source.

The text below walks through data of US10821099B2, “Use of tradipitant in motion sickness” (Vanda Pharmaceuticals Inc., priority 2018, dated 2020).

Data set [1] deals with NK-1 agonist (GR73632)-induced foot-tapping behavior. Nature of the data set: NK-1 agonist (GR73632, icv)-induced foot-tapping behavior in gerbils. The class given is in vivo, Mongolian gerbil. How it is done: Immediately after injection, animals are placed individually into isolated chambers with pressure-sensitive velocimeter platform floors (San Diego Instruments acoustic startle apparatus) that detect and quantify vibration. The San Diego Instruments “SR” DOS-based computer program is used on a PC to record the number of foot-taps over the following 6 to 10 minutes, beginning 30 seconds after the floor is lightly tapped. Raw data are converted with a Microsoft® Excel® (Microsoft® and Excel® are registered trademarks of Microsoft Corp., Redmond, Wash.) macro that determines the number of events over threshold (125) in each 250-millisecond time bin over the 5.5 minutes following onset of observation. The total number and average intensity of events over the duration is determined. Total number of taps is analyzed with one-way ANOVA and post-hoc Dunnett's test using JMP statistical software. A dose-response curve (with doses of 0.3, 1, 3 and 10 pmols, icv) is initially generated with the NK-1 agonist GR73632. […] NK-1 antagonists are tested for their ability to attenuate GR73632-induced foot tapping. NK-1 antagonists are administered (po) via oral feeding tube at doses and time points specified in each experiment. All animals receive only one dose of NK-1 antagonists in all tests. NK-1 antagonists are administered at multiple doses (at least 3; one dose per animal) and response to GR73632 is measured. NK-1 receptor antagonists are administered at multiple pre-treatment times (one administration per animal) including at 0.5, 1, 2, 4, 7, 16, and 24 hours prior to GR73632 injection. GR73632 (Peninsula Labs, CA) is dissolved in saline. Tradipitant is dissolved in 1% CMC/0.5% SLS/0.085% PVP vehicle.

Data set [2] has as its system vomiting due to motion sickness. The following applies: crossover study; cited from earlier work.
Data set [3] relates to panel of 74 other receptors, enzymes, and ion channels. Nature of the data set: Binding panel of 74 other receptors, enzymes and ion channels.
The next data set addresses T1, NK-2 receptor (Homo sapiens, UniProt P21452).
T1 sequence (P21452 1-398): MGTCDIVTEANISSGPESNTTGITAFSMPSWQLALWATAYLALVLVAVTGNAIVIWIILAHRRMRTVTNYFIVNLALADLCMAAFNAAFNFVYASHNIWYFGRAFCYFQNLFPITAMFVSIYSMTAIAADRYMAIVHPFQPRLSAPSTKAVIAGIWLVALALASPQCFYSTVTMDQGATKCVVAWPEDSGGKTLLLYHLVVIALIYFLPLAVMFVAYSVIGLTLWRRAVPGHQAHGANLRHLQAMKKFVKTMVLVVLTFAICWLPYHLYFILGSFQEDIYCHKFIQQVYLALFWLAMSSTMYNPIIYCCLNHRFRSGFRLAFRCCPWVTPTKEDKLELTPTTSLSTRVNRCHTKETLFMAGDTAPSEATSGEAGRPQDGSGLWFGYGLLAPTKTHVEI
The data set is described as follows: NK-2 receptor inhibition. The class given is binding.

Another data set concerns the target T2, NK-3 receptor (Homo sapiens, UniProt P29371).
T2 sequence (P29371 1-465): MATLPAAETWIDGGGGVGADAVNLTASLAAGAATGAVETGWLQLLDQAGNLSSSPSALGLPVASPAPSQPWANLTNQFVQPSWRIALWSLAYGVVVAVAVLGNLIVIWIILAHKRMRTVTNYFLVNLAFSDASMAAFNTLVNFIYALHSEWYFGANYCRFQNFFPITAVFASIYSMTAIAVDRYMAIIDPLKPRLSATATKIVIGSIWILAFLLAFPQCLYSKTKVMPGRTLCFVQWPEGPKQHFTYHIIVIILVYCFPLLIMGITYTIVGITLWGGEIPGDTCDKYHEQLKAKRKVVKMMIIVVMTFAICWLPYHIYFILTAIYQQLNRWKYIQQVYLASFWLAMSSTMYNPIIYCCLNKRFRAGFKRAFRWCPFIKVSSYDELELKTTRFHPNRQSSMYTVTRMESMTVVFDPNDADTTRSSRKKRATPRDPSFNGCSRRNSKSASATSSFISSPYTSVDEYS
Nature of the data set: NK-3 receptor inhibition. In kind it is binding.

For data set [4], the system named is apomorphine-induced emesis. Nature of the data set: Emetic challenge study (apomorphine-induced emesis) in beagle dogs. The following applies: each dose tested (0.3, 1.0, and 3.0 mg/kg). In kind it is in vivo, beagle dog. The procedure: Each animal is administered a different dose on a particular dosing day, so that each dose of tradipitant, aprepitant, and apomorphine alone is represented. Over the five (5) weeks of the study, each animal receives each of the treatments, but only one per week. The purpose of this study is to determine if tradipitant suppresses apomorphine-induced emesis.
(§1) All animals are dosed over a period of five (5) weeks, with each dog receiving one of five different treatments on each day of dosing. […] In cases where apomorphine is administered alone, without prior treatment with tradipitant or aprepitant, apomorphine is given at approximately the same time as when given in combination with tradipitant or aprepitant.
All dogs are fasted overnight prior to each treatment day and then fed approximately one (1) hour after oral dosing (approximately one (1) hour prior to administration of apomorphine). Individual doses are adjusted weekly for changes in body weight.
The dose regimen consists of a 5×5 Latin square design, in which each subject receives 1 dose or dose combination per week (6 day washout) as shown in Table 3 below.

Data set [5] can be described thus: Plasma concentration of tradipitant 2 hours post-dose in dogs. The following applies: male, beagle, dog, oral, read-out: Concentration of tradipitant in plasma, Mean (SD). In kind it is in vivo. The procedure:
as §1

The test system of data set [6] is NK-1 agonist (GR73632)-induced vocalization. Nature of the data set: GR73632-induced vocalization in guinea pigs. The class given is in vivo, guinea pig. The procedure:
Male Dunkin/Hartley guinea pigs (200 to 250 grams) are orally administered either vehicle or an NK-1 antagonist. Approximately 45 minutes later (for dose response studies), the animals are anesthetized and 0.1 nmol of GR73632 (SP analog) in a vehicle volume of 5 μl is injected into the cerebral ventricle at the intersection of bregma and the midline of the skull. Animals are placed in a dark testing chamber located inside of a sound attenuation cubicle and vocalizations are recorded for 30 minutes following recovery from anesthesia. The time spent vocalizing is quantified for each animal. In the duration of action study, 0.1 mg/kg of tradipitant or vehicle solution is administered orally and then 2, 4, or 7 hours later, 0.1 nmol of GR73632 is administered into the cerebral ventricle as described above. Vocalizations are recorded and quantified as indicated above. Vehicle solutions are either CMC (FIG. 4 data) or an ethanol/emulphor solution (FIGS. 5 and 6). Data is analyzed using one-tailed t-tests.

Data set [7] deals with T3, NK-1 receptor (Homo sapiens, UniProt P25103). The data set is described as follows: SP-induced mobilization of intracellular calcium in U373 cells. In kind it is cell-based. Details: mobilization of intracellular calcium in U373 cells; endogenous in cells; host or cells: U373 cells. For orientation: A change in cytosolic calcium serves as a functional read-out for many receptors and channels.
T3 sequence (P25103 whole entry): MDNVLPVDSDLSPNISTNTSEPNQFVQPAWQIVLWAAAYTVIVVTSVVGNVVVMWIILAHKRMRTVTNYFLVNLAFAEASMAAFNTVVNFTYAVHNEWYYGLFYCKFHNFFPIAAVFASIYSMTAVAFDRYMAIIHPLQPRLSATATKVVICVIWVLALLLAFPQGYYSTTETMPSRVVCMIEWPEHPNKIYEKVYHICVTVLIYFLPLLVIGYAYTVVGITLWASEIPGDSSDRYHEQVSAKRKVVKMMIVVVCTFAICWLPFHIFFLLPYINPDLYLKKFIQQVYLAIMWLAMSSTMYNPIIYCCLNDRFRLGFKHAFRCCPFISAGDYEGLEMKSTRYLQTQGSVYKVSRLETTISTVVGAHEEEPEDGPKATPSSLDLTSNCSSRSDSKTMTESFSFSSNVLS

The target of data set [8] is T3, NK-1 receptor. The data set is described as follows: [125I] substance P binding to the NK-1 receptor, IM-9 human cell membrane binding. The following applies: Table 1. Set-up: NK-1 receptor expressed by IM-9 cells; endogenous in cells; host or cells: IM-9 human cells (membranes).

`C[C@@H](O[C@H]1OCCN(Cc2n[nH]c(=O)[nH]2)[C@H]1c1ccc(F)cc1)c1cc(C(F)(F)F)cc(C(F)(F)F)c1` [Aprepitant, reference compound]: the “time after administration up to which foot-tapping is inhibited” value in data set [1] (1 mg/kg) is “up to 24 hours”.

With `COc1ccc(C(C)(C)C)cc1CN[C@H]1C2CCN(CC2)[C@H]1C(c1ccccc1)c1ccccc1` [Maropitant], the “dogs in which the occurrence of vomiting was reduced as compared to placebo” value in [2] was “over 75%”.

`O=C(c1ccccc1Cl)c1cccnc1-c1nnn(Cc2cc(C(F)(F)F)cc(C(F)(F)F)c2)c1-c1ccncc1` [Tradipitant, {2-[1-(3,5-bistrifluoromethylbenzyl)-5-pyridin-4-yl-1H-[1,2,3]triazol-4-yl]-pyridin-3-yl}-(2-chlorophenyl)-methanone]: in [3], the “activity in panel of 74 additional receptors, enzymes, and ion channels including NK-2 and NK-3 receptors” value is given as “No significant activity”. The molecule also yielded an inhibition of binding in data set [3] (test concentration of 1 μM) of no more than 50%. Besides, on NK-2 receptor, the inhibition (commonly the relative decrease from the control value, in per cent) at the NK-2 receptor is “no significant inhibition”. Further, at NK-3 receptor, the “inhibition at the NK-3 receptor” value is reported as “no significant inhibition”. Further, the “time after administration up to which foot-tapping is significantly inhibited” value in [1] (0.1 mg/kg, po) was “up to 7 hours”. The “effect on foot-tapping by 16 hours after administration” value in data set [1] (0.1 mg/kg, po, 16 hours) is “significantly diminished”. Also, in data set [1] (Meriones unguiculatus, po, 1 mg/kg, 16 hours after administration), the inhibition at 1 mg/kg is greater than 50%. Besides, in [1] (Meriones unguiculatus, oral, 2 hours after administration, GR73632 3 pmol icv, read-out: ED50, inhibition of foot-tapping behavior), the ED50 (usually the dose that gives a 50% effect, or the effect in half of the subjects) was determined as 0.03 ± 0.004 mg/kg. Besides, the “efficacy against apomorphine-induced emesis” value in [4] was “effective against apomorphine-induced emesis”. In addition, the concentration at 2 h came out at 57.9 ng/mL in data set [5] (0.3 mg/kg, 0.3 mg/kg oral); 133 ng/mL in data set [5] (1 mg/kg, 1.0 mg/kg oral); 300 ng/mL in data set [5] (3 mg/kg, 3.0 mg/kg oral). Besides, the “suppression of agonist-induced vocalization at 7 hours” value in [6] (0.1 mg/kg oral, 7 hours after administration) was “significantly active”. Moreover, in [6] (administered orally), the duration of activity result is recorded as “exceeds 7 hours”. For the same molecule, the “inhibitory activity on vocalization at and below 0.1 mg/kg” value in [6] (at and below 0.1 mg/kg oral, FIG. 6) is “retains significant inhibitory activity”. Further, the “inhibition of agonist-induced vocalization” value in [6] (oral doses of 10, 1.0, 0.1 and 0.05 mg/kg (each p<0.001), FIG. 4) is recorded as “significant inhibition”. In addition, the “minimum effective dose (MED), inhibition of vocalization” value in data set [6] (oral, p<0.001 compared to controls) was found to be 0.025 mg/kg. Besides, the Kb at NK-1 receptor [7] came out at 0.095 nM. Further, the Ki (as a rule, the dissociation constant of the complex between target and ligand, obtained from inhibition or displacement) at NK-1 receptor [8] stood at 0.062 nM.
